Measurements as given in patent US7612064B2, “Sulfopyrroles” (Takeda Pharmaceutical Company Limited, priority 2003, dated 2009).

Legend:
HeLa = assay: MTS proliferation assay; type: cell-based, human; settings: 72 h
In short: (§1)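 Compounds at final 10/3/1/0.3 μM (added in complete medium, ≤5% DMSO); 72 h, culture conditions; + MTS, 3 h; A492.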

Jurkat = assay: MTS proliferation assay; type: cell-based, human; settings: 72 h
In short: as §1

Jily = assay: MTS proliferation assay; type: cell-based; settings: 72 h
In short: as §1

MRC5 = assay: MTS proliferation assay; type: cell-based; settings: MRC5, 72 h
In short: as §1

[1] = Hoechst 33342 nuclear staining; type: cell-based; settings: for Hoechst 33342 nuclear staining score, H460: H460 cells; for Hoechst 33342 nuclear staining score, HeLa: HeLa cells; for Hoechst 33342 nuclear staining score, Jily: Jily cells; for Hoechst 33342 nuclear staining score, Jurkat: Jurkat cells; for Hoechst 33342 nuclear staining score, MRC5: MRC5 cells;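 as to all read-outs here: apoptotic nuclei scored 0 none 1 weak under 50% of cells 2 strong over 50% of cells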
In short: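 After a further 30 min incubation, plates were inspected on a standard inverted fluorescence microscope. The fraction of apoptotic nuclei and other apoptosis-specific morphology were scored as 0 for no activity, 1 for weak activity in less than 50% of the cells, and 2 for strong activity in more than 50% of the cells.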

| Compound | IC50 (HeLa) | IC50 (Jurkat) | IC50 (Jily) | IC50 (MRC5) | Hoechst 33342 nuclear staining score, H460 ([1]; conc 0.1) | Hoechst 33342 nuclear staining score, H460 ([1]; conc 0.3) | Hoechst 33342 nuclear staining score, H460 ([1]; conc 1) | Hoechst 33342 nuclear staining score, H460 ([1]; conc 3) | Hoechst 33342 nuclear staining score, HeLa ([1]; conc 0.1) | Hoechst 33342 nuclear staining score, HeLa ([1]; conc 0.3) | Hoechst 33342 nuclear staining score, HeLa ([1]; conc 1) | Hoechst 33342 nuclear staining score, HeLa ([1]; conc 3) | Hoechst 33342 nuclear staining score, Jily ([1]; conc 0.1) | Hoechst 33342 nuclear staining score, Jily ([1]; conc 0.3) | Hoechst 33342 nuclear staining score, Jily ([1]; conc 1) | Hoechst 33342 nuclear staining score, Jily ([1]; conc 3) | Hoechst 33342 nuclear staining score, Jurkat ([1]; conc 0.1) | Hoechst 33342 nuclear staining score, Jurkat ([1]; conc 0.3) | Hoechst 33342 nuclear staining score, Jurkat ([1]; conc 1) | Hoechst 33342 nuclear staining score, Jurkat ([1]; conc 3) | also measured |
| --- | --- | --- | --- | --- | --- | --- | --- | --- | --- | --- | --- | --- | --- | --- | --- | --- | --- | --- | --- | --- | --- |
| COc1cc(-c2cc(-c3cccnc3)cn2S(=O)(=O)c2ccc(F)cc2)cc(OC)c1OC [Example 80] | > 1 µM | > 1 µM | > 1 µM | > 1 µM | 0 | 0 | 0 | 0 | 0 | 0 | 0 | 0 | 0 | 0 | 0 | 2 (strong activity comprising more than 50% of the cells) | 0 | 0 | 0 | 2 (strong activity comprising more than 50% of the cells) | Hoechst 33342 nuclear staining score, MRC5 ([1]; conc 0.1): 0; Hoechst 33342 nuclear staining score, MRC5 ([1]; conc 0.3): 0; Hoechst 33342 nuclear staining score, MRC5 ([1]; conc 1): 0; Hoechst 33342 nuclear staining score, MRC5 ([1]; conc 3): 0; Hoechst 33342 nuclear staining score, PBLs ([1]; conc 0.1): 0; Hoechst 33342 nuclear staining score, PBLs ([1]; conc 0.3): 0; Hoechst 33342 nuclear staining score, PBLs ([1]; conc 1): 0; Hoechst 33342 nuclear staining score, PBLs ([1]; conc 3): 0 |
| COc1cc(-c2cc(-c3cccnc3)cn2S(=O)(=O)c2ccc(Cl)cc2)cc(OC)c1OC [Example 81] | > 1 µM | > 1 µM | > 1 µM | > 1 µM | 0 | 0 | 0 | 2 (strong activity comprising more than 50% of the cells) | 0 | 0 | 0 | 1 (weak activity comprising less than 50% of the cells) | 0 | 0 | 0 | 1 (weak activity comprising less than 50% of the cells) | 0 | 0 | 0 | 2 (strong activity comprising more than 50% of the cells) | Hoechst 33342 nuclear staining score, MRC5 ([1]; conc 0.1): 0; Hoechst 33342 nuclear staining score, MRC5 ([1]; conc 0.3): 0; Hoechst 33342 nuclear staining score, MRC5 ([1]; conc 1): 0; Hoechst 33342 nuclear staining score, MRC5 ([1]; conc 3): 0; Hoechst 33342 nuclear staining score, PBLs ([1]; conc 0.1): 0; Hoechst 33342 nuclear staining score, PBLs ([1]; conc 0.3): 0; Hoechst 33342 nuclear staining score, PBLs ([1]; conc 1): 0; Hoechst 33342 nuclear staining score, PBLs ([1]; conc 3): 0 |
| COc1cc(-c2cc(-c3cccnc3)cn2S(=O)(=O)c2ccc(C(F)(F)F)cc2)cc(OC)c1OC [Example 82] | > 1 µM | < 1 µM | > 1 µM | > 1 µM | 0 | 0 | 2 (strong activity comprising more than 50% of the cells) | 2 (strong activity comprising more than 50% of the cells) | 0 | 0 | 2 (strong activity comprising more than 50% of the cells) | 2 (strong activity comprising more than 50% of the cells) | 0 | 0 | 1 (weak activity comprising less than 50% of the cells) | 2 (strong activity comprising more than 50% of the cells) | 0 | 0 | 2 (strong activity comprising more than 50% of the cells) | 2 (strong activity comprising more than 50% of the cells) | Hoechst 33342 nuclear staining score, MRC5 ([1]; conc 0.1): 0; Hoechst 33342 nuclear staining score, MRC5 ([1]; conc 0.3): 0; Hoechst 33342 nuclear staining score, MRC5 ([1]; conc 1): 1 (weak activity comprising less than 50% of the cells); Hoechst 33342 nuclear staining score, MRC5 ([1]; conc 3): 1 (weak activity comprising less than 50% of the cells); Hoechst 33342 nuclear staining score, PBLs ([1]; conc 0.1): 0; Hoechst 33342 nuclear staining score, PBLs ([1]; conc 0.3): 0; Hoechst 33342 nuclear staining score, PBLs ([1]; conc 1): 0; Hoechst 33342 nuclear staining score, PBLs ([1]; conc 3): 0 |
| COc1cc(-c2cc(-c3cccnc3)cn2S(=O)(=O)c2ccc(C(C)(C)C)cc2)cc(OC)c1OC [Example 83] | > 1 µM | > 1 µM | > 1 µM | > 1 µM | 0 | 0 | 0 | 0 | 0 | 0 | 0 | 0 | 0 | 0 | 0 | 0 | 0 | 0 | 0 | 0 | Hoechst 33342 nuclear staining score, MRC5 ([1]; conc 0.1): 0; Hoechst 33342 nuclear staining score, MRC5 ([1]; conc 0.3): 0; Hoechst 33342 nuclear staining score, MRC5 ([1]; conc 1): 0; Hoechst 33342 nuclear staining score, MRC5 ([1]; conc 3): 0; Hoechst 33342 nuclear staining score, PBLs ([1]; conc 0.1): 0; Hoechst 33342 nuclear staining score, PBLs ([1]; conc 0.3): 0; Hoechst 33342 nuclear staining score, PBLs ([1]; conc 1): 0; Hoechst 33342 nuclear staining score, PBLs ([1]; conc 3): 0 |
| COc1cc(-c2cc(-c3cccnc3)cn2S(=O)(=O)c2ccccc2Cl)cc(OC)c1OC [Example 84] | > 1 µM | > 1 µM | > 1 µM | > 1 µM | 0 | 0 | 0 | 0 | 0 | 0 | 0 | 0 | 0 | 0 | 0 | 0 | 0 | 0 | 0 | 0 | Hoechst 33342 nuclear staining score, MRC5 ([1]; conc 0.1): 0; Hoechst 33342 nuclear staining score, MRC5 ([1]; conc 0.3): 0; Hoechst 33342 nuclear staining score, MRC5 ([1]; conc 1): 0; Hoechst 33342 nuclear staining score, MRC5 ([1]; conc 3): 0; Hoechst 33342 nuclear staining score, PBLs ([1]; conc 0.1): 0; Hoechst 33342 nuclear staining score, PBLs ([1]; conc 0.3): 0; Hoechst 33342 nuclear staining score, PBLs ([1]; conc 1): 0; Hoechst 33342 nuclear staining score, PBLs ([1]; conc 3): 0 |
| COc1cc(-c2cc(-c3cccnc3)cn2S(=O)(=O)c2c(Cl)cccc2Cl)cc(OC)c1OC [Example 85] | > 1 µM | > 1 µM | > 1 µM | > 1 µM | 0 | 0 | 0 | 0 | 0 | 0 | 0 | 0 | 0 | 0 | 0 | 0 | 0 | 0 | 0 | 0 | Hoechst 33342 nuclear staining score, MRC5 ([1]; conc 0.1): 0; Hoechst 33342 nuclear staining score, MRC5 ([1]; conc 0.3): 0; Hoechst 33342 nuclear staining score, MRC5 ([1]; conc 1): 0; Hoechst 33342 nuclear staining score, MRC5 ([1]; conc 3): 0; Hoechst 33342 nuclear staining score, PBLs ([1]; conc 0.1): 0; Hoechst 33342 nuclear staining score, PBLs ([1]; conc 0.3): 0; Hoechst 33342 nuclear staining score, PBLs ([1]; conc 1): 0; Hoechst 33342 nuclear staining score, PBLs ([1]; conc 3): 0 |
